Biological target: T1, PDE4B (human recombinant) enzyme (Homo sapiens, UniProt Q07343)
T1 construct: made in house; host or cells: Saccharomyces cerevisiae strain GL62 (PDE-deficient yeast), as described in WO 94/20079
Assay: Inhibition of PDE4B catalytic activity, IMAP fluorescence polarisation (FP) assay
Assay type: biochemical
Conditions: inhibition of catalytic activity at PDE4B (human recombinant); FP assay described above or similar
Text: Human recombinant PDE4B, in particular the 2B splice variant thereof (HSPDE4B2B), is disclosed in WO 94/20079 and also in M. M. McLaughlin et al., “A low Km, rolipram-sensitive, cAMP-specific phosphodiesterase from human brain: cloning and expression of cDNA, biochemical characterisation of recombinant protein, and tissue distribution of mRNA”, J. Biol. Chem., 1993, 268, 6470-6476. For example, in Example 1 of WO 94/20079, human recombinant PDE4B is described as being expressed in the PDE-deficient yeast Saccharomyces cerevisiae strain GL62, e.g. after induction by addition of 150 uM CuSO4, and 100,000×g supernatant fractions of yeast cell lysates are described for use in the harvesting of PDE4B enzyme.
The ability of compounds to inhibit PDE catalytic activity was determined by IMAP Fluorescence Polarisation (FP) assay (Molecular Devices Ltd code: R8062) in 384-well format. […]
For the PDE3, PDE4B and PDE4D assays Fluorescein adenosine 3′,5′-cyclic phosphate (Molecular Devices Ltd code: R7091) was added to give ˜40 nM final concentration. […] The FP ratio of parallel to perpendicular light was measured using an Analyst™ plate reader (from Molecular Devices Ltd). […] Curves were analysed using ActivityBase and XLfit (ID Business Solutions Limited). Results were expressed as pIC50 values.

T1 sequence (Q07343 1-564 isoform Q07343-2): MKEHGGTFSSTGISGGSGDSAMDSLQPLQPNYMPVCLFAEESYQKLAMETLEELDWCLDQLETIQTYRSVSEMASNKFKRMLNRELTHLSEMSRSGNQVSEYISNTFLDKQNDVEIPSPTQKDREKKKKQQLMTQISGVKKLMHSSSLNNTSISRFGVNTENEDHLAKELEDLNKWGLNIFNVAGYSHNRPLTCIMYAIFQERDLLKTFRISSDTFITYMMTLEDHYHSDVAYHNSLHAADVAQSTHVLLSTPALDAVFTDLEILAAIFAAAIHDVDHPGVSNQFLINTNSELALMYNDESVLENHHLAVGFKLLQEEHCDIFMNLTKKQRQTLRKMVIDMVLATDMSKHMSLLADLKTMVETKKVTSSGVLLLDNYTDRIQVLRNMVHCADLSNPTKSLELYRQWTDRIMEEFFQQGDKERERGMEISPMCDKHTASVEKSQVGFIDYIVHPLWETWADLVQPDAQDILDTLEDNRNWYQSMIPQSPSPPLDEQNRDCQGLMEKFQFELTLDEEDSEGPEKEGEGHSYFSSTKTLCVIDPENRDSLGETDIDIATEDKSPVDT

- IC50: ~0.1 nM
Structure (SMILES): Cc1cc(S(C)(=O)=O)cc2c(Nc3cccc(C#N)c3)c(C(N)=O)nnc12 [Example 1, 4-[(3-Cyanophenyl)amino]-8-methyl-6-(methylsulfonyl)-3-cinnolinecarboxamide]
